Source: PubChem BioAssay AID330 (DTP/NCI, 2004)
Several values for one entry are separate records, joined by “and”; a condition that tells them apart may be missing. Identical values can stand only once. Toxic doses and inconclusive results are not listed.

Tested on: P388 leukemia ip, CD2F1 mice, survival T/C
Test: NCI In Vivo Anticancer Drug Screen. Data for tumor model P388 Leukemia (intraperitoneal) in CD2F1 (CDF1) mice
Conditions: endpoint: median survival time, higher = longer survival
Procedure, shortened: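 Mice carrying the transplanted tumor received test compound or vehicle. Survival was recorded in each group, and the value is the treated-group measurement divided by that of the vehicle-treated control group.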

[1] = dose: 60.0 mg/kg/injection, schedule: Q01DX005 (ip), vehicle: saline with Tween-80
[2] = dose: 120.0 mg/kg/injection, schedule: Q01DX005 (ip), vehicle: saline with Tween-80
[3] = dose: 50.0 mg/kg/injection, schedule: Q01DX005 (ip), vehicle: Klucel (hydroxypropylcellulose) (HPC)
[4] = dose: 100.0 mg/kg/injection, schedule: Q01DX005 (ip), vehicle: Klucel (hydroxypropylcellulose) (HPC)
[5] = dose: 12.5 mg/kg/injection, schedule: Q01DX009 (ip), vehicle: saline with Tween-80
[6] = dose: 25.0 mg/kg/injection, schedule: Q01DX009 (ip), vehicle: saline with Tween-80
[7] = dose: 50.0 mg/kg/injection, schedule: Q01DX009 (ip), vehicle: saline with Tween-80
[8] = dose: 100.0 mg/kg/injection, schedule: Q01DX009 (ip), vehicle: saline with Tween-80
[9] = dose: 240.0 mg/kg/injection, schedule: Q01DX005 (ip), vehicle: saline with Tween-80
[10] = dose: 12.5 mg/kg/injection, schedule: Q01DX009 (ip), vehicle: Klucel (hydroxypropylcellulose) (HPC)
[11] = dose: 25.0 mg/kg/injection, schedule: Q01DX009 (ip), vehicle: Klucel (hydroxypropylcellulose) (HPC)
[12] = dose: 50.0 mg/kg/injection, schedule: Q01DX009 (ip), vehicle: Klucel (hydroxypropylcellulose) (HPC)

In the case of `O=c1[nH]c2ccccc2cc1CBr`, the T/C (dose: 50.0 mg/kg/injection, schedule: Q04DX002 (ip), vehicle: Klucel (hydroxypropylcellulose) (HPC)) is reported as 95 % of control, the T/C (dose: 100.0 mg/kg/injection, schedule: Q04DX002 (ip), vehicle: Klucel (hydroxypropylcellulose) (HPC)) is reported as 102 % of control and 104 % of control and the T/C (dose: 400.0 mg/kg/injection, schedule: Q04DX002 (ip), vehicle: Klucel (hydroxypropylcellulose) (HPC)) is reported as 96 % of control.
In the case of `CCOC(=O)C(Br)CN1C(=O)c2ccccc2C1=O` (stereo unspecified), the T/C [1] is reported as 97 % of control and the T/C [2] is reported as 115 % of control.
`C=C1CCC2C(C)(CO)C(O)CCC2(C)C1CCC1=CCOC1=O` (stereo unspecified) was tested, and the T/C (dose: 11.0 mg/kg/injection, schedule: Q01DX005 (ip), vehicle: Klucel (hydroxypropylcellulose) (HPC)) was 110 % of control, the T/C (dose: 22.0 mg/kg/injection, schedule: Q01DX005 (ip), vehicle: Klucel (hydroxypropylcellulose) (HPC)) was 99 % of control and the T/C (dose: 44.0 mg/kg/injection, schedule: Q01DX005 (ip), vehicle: Klucel (hydroxypropylcellulose) (HPC)) was 99 % of control. For the same compound, the T/C (dose: 88.0 mg/kg/injection, schedule: Q01DX005 (ip), vehicle: Klucel (hydroxypropylcellulose) (HPC)) was 97 % of control.
In the case of `CCCCCCCCCC1(O)OC(=O)C(C)=C1C` (stereo unspecified), the T/C (dose: 12.5 mg/kg/injection, schedule: Q04DX003 (ip), vehicle: saline with Tween-80) is reported as 115 % of control, the T/C (dose: 25.0 mg/kg/injection, schedule: Q04DX003 (ip), vehicle: saline with Tween-80) is reported as 100 % of control and the T/C (dose: 50.0 mg/kg/injection, schedule: Q04DX003 (ip), vehicle: saline with Tween-80) is reported as 102 % of control.
For `CN(C)c1ccc2[nH]cc(C(=O)O)c(=O)c2c1`, the T/C (dose: 7.5 mg/kg/injection, schedule: Q01DX005 (ip), vehicle: Klucel (hydroxypropylcellulose) (HPC)) was 99 % of control, the T/C (dose: 15.0 mg/kg/injection, schedule: Q01DX005 (ip), vehicle: Klucel (hydroxypropylcellulose) (HPC)) was 102 % of control and the T/C (dose: 30.0 mg/kg/injection, schedule: Q01DX005 (ip), vehicle: Klucel (hydroxypropylcellulose) (HPC)) was 102 % of control.
`COc1cc2c(cc1OC)C(=O)Nc1nc(N)nc(N)c1C2` was tested, and the T/C (dose: 100.0 mg/kg/injection, schedule: Q01DX001 (ip), vehicle: saline with Tween-80) was 108 % of control and the T/C (dose: 200.0 mg/kg/injection, schedule: Q01DX001 (ip), vehicle: saline with Tween-80) was 119 % of control.
`CC(NNC(=S)N(C)C1CCCCC1)c1nccc2ccccc12` (stereo unspecified) was tested, and the T/C (dose: 30.12 mg/kg/injection, schedule: Q01DX001 (ip), vehicle: Klucel (hydroxypropylcellulose) (HPC)) was 101 % of control and 102 % of control, the T/C (dose: 60.25 mg/kg/injection, schedule: Q01DX001 (ip), vehicle: Klucel (hydroxypropylcellulose) (HPC)) was 103 % of control and 107 % of control and 108 % of control and the T/C (dose: 120.5 mg/kg/injection, schedule: Q01DX001 (ip), vehicle: Klucel (hydroxypropylcellulose) (HPC)) was 114 % of control and 115 % of control. For the same compound, the T/C (dose: 241.0 mg/kg/injection, schedule: Q01DX001 (ip), vehicle: Klucel (hydroxypropylcellulose) (HPC)) was 108 % of control and 113 % of control.
In the case of `C[C@]12CC[C@H]3[C@@H](C[C@H]4OC[C@@]35CC[C@H](O)C[C@]45Br)[C@@H]1CC[C@@H]2O`, the T/C [3] is reported as 97 % of control, the T/C [4] is reported as 97 % of control and the T/C (dose: 200.0 mg/kg/injection, schedule: Q01DX005 (ip), vehicle: Klucel (hydroxypropylcellulose) (HPC)) is reported as 96 % of control.
`Oc1ccc(O)cc1` was tested, and the T/C [5] was 106 % of control, the T/C [6] was 113 % of control and the T/C [7] was 122 % of control. For the same compound, the T/C [8] was 150 % of control.
With `O=[N+]([O-])C1CCC(N=Nc2c(O)ccc3ccccc23)CC1` (stereo unspecified) the T/C [1] was 96 % of control, the T/C [2] was 99 % of control and the T/C [9] was 99 % of control.
For `C=C1CCC2C(C)(CCC(O)C2(C)C(=O)O)C1CCc1ccoc1` (stereo unspecified), the T/C (dose: 20.0 mg/kg/injection, schedule: Q01DX005 (ip), vehicle: other) was 95 % of control, the T/C (dose: 40.0 mg/kg/injection, schedule: Q01DX005 (ip), vehicle: other) was 100 % of control and the T/C (dose: 80.0 mg/kg/injection, schedule: Q01DX005 (ip), vehicle: other) was 103 % of control. The T/C (dose: 160.0 mg/kg/injection, schedule: Q01DX005 (ip), vehicle: other) was 95 % of control.
For `CCCC1OP(=O)(N2CC(C)N(P3(=O)OCC(CC)C(CCC)O3)CC2C)OCC1CC` (stereo unspecified), the T/C [3] was 90 % of control and the T/C [4] was 101 % of control.
For `CC1(C)CCCC2(C)C1CCC1(C)OC3=CC(=O)C(O)=CC3=CC12` (stereo unspecified), the T/C (dose: 6.25 mg/kg/injection, schedule: Q01DX009 (ip), vehicle: Klucel (hydroxypropylcellulose) (HPC)) was 100 % of control, the T/C [10] was 112 % of control and the T/C [11] was 119 % of control.
For `C=C1C(=O)OC2/C=C(\C)CC/C=C(/CO)C(OC(=O)C(C)(C)O)C(OC(=O)C(C)C)C12` (stereo unspecified), the T/C (dose: 5.0 mg/kg/injection, schedule: Q01DX009 (ip), vehicle: other) was 107 % of control.
In the case of `NC(N)=NC(N)=Nc1ccc(Cl)c(Cl)c1`, the T/C [5] is reported as 103 % of control, the T/C [6] is reported as 103 % of control and 106 % of control and the T/C [7] is reported as 112 % of control and 93 % of control. For the same compound, the T/C [8] was 88 % of control and the T/C (dose: 100.0 mg/kg/injection, schedule: Q04DX003 (ip), vehicle: saline) was 109 % of control.
`CC(C)(C)N=C(CC(=NC(C)(C)C)Nc1ccccc1Cl)Nc1ccccc1Cl` was tested, and the T/C [7] was 91 % of control, the T/C [8] was 92 % of control and the T/C (dose: 200.0 mg/kg/injection, schedule: Q01DX009 (ip), vehicle: saline with Tween-80) was 86 % of control.
With `O=C1CSC(c2ccc(Cl)cc2)N1c1nncs1` (stereo unspecified) the T/C [1] was 101 % of control, the T/C [2] was 102 % of control and the T/C [9] was 108 % of control.
With `CN1CC2CC3=C(CCC45CC6C(C=C34)C63CCC4(CC67CCC8C9(C)CCCC8%10C(C6CC4CC7%10)N(C)C9)OC53)C(C)(C2)C1` (stereo unspecified) the T/C [10] was 93 % of control, the T/C [11] was 103 % of control and the T/C [12] was 111 % of control.
With `CC(=O)OC(C)(C)/C=C/C(=O)[C@](C)(O)[C@H]1[C@H](O)C[C@@]2(C)[C@@H]3CC=C4[C@@H](C[C@H](O)C(=O)C4(C)C)[C@]3(C)C(=O)C[C@]12C` the T/C (dose: 0.13 mg/kg/injection, schedule: Q01DX010 (ip), vehicle: saline) was 95 % of control, the T/C (dose: 0.25 mg/kg/injection, schedule: Q01DX009 (ip), vehicle: saline with Tween-80) was 104 % of control and the T/C (dose: 0.25 mg/kg/injection, schedule: Q01DX010 (ip), vehicle: saline) was 104 % of control. The T/C (dose: 0.5 mg/kg/injection, schedule: Q01DX009 (ip), vehicle: saline with Tween-80) was 100 % of control, the T/C (dose: 0.5 mg/kg/injection, schedule: Q01DX010 (ip), vehicle: saline) was 100 % of control and the T/C (dose: 0.62 mg/kg/injection, schedule: Q01DX009 (ip), vehicle: saline) was 113 % of control. The T/C (dose: 1.0 mg/kg/injection, schedule: Q01DX009 (ip), vehicle: saline with Tween-80) was 109 % of control, the T/C (dose: 1.0 mg/kg/injection, schedule: Q01DX010 (ip), vehicle: saline) was 104 % of control and the T/C (dose: 1.25 mg/kg/injection, schedule: Q01DX009 (ip), vehicle: saline) was 117 % of control. The T/C (dose: 2.0 mg/kg/injection, schedule: Q01DX009 (ip), vehicle: saline with Tween-80) was 118 % of control, the T/C (dose: 2.5 mg/kg/injection, schedule: Q01DX009 (ip), vehicle: saline) was 117 % of control and the T/C (dose: 5.0 mg/kg/injection, schedule: Q01DX009 (ip), vehicle: saline) was 113 % of control. The T/C (dose: 10.0 mg/kg/injection, schedule: Q01DX009 (ip), vehicle: saline) was 113 % of control.
With `COC(=O)C1(CC(=O)c2cccc3ccccc23)NC(=S)NC(=O)C1C#N` (stereo unspecified) the T/C [1] was 101 % of control, the T/C [2] was 101 % of control and the T/C [9] was 102 % of control.
In the case of `O=C1NCCCCCC1S(=O)c1ccccc1` (stereo unspecified), the T/C (dose: 50.0 mg/kg/injection, schedule: Q01DX005 (ip), vehicle: saline with Tween-80) is reported as 103 % of control, the T/C (dose: 100.0 mg/kg/injection, schedule: Q01DX005 (ip), vehicle: saline with Tween-80) is reported as 96 % of control and the T/C (dose: 200.0 mg/kg/injection, schedule: Q01DX005 (ip), vehicle: saline with Tween-80) is reported as 101 % of control.
With `CC(C)(C)CC(C)(C)c1ccc(O)cc1` the T/C (dose: 66.0 mg/kg/injection, schedule: Q01DX009 (ip), vehicle: saline) was 100 % of control, the T/C (dose: 100.0 mg/kg/injection, schedule: Q01DX009 (ip), vehicle: saline) was 100 % of control and the T/C (dose: 150.0 mg/kg/injection, schedule: Q01DX009 (ip), vehicle: saline) was 122 % of control. The T/C (dose: 200.0 mg/kg/injection, schedule: Q01DX009 (ip), vehicle: saline sonified) was 118 % of control.
For `CC(Cc1ccccc1)NC(=O)C1CC2CCCCN2C1C` (stereo unspecified), the T/C [1] was 97 % of control and the T/C [2] was 95 % of control.
For `COc1ccc(S(=O)(=O)F)cc1NC(=O)Oc1ccccc1`, the T/C [1] was 105 % of control, the T/C [2] was 113 % of control and the T/C [9] was 111 % of control.
With `CCOC(=O)CNC(=O)Oc1ccc(Cl)cn1` the T/C [12] was 102 % of control, the T/C (dose: 100.0 mg/kg/injection, schedule: Q01DX009 (ip), vehicle: Klucel (hydroxypropylcellulose) (HPC)) was 97 % of control and the T/C (dose: 200.0 mg/kg/injection, schedule: Q01DX009 (ip), vehicle: Klucel (hydroxypropylcellulose) (HPC)) was 102 % of control.
